In patent publication EP0880540B1, “17-BETA-CYCLOPROPYL(AMINO/OXY) 4-AZA STEROIDS AS ACTIVE INHIBITORS OF TESTOSTERONE 5-ALPHA-REDUCTASE AND C17-20-LYASE” (Aventis Pharmaceuticals Inc., priority 1996, dated 1997):

How the values were obtained:
[1] = biological target: T1, cynomolgus monkey prostatic 5α-reductase (Macaca fascicularis, UniProt Q28892); assay: In vitro 5α-reductase assay, prostate microsomes; assay type: biochemical; settings: mean of duplicates
T1 construct: microsomal preparations of the 5α-reductase enzyme from laboratory animal prostate tissue; from tissue; host or cells: cynomolgus monkey prostate, microsomes
T1 sequence (Q28892 1-254): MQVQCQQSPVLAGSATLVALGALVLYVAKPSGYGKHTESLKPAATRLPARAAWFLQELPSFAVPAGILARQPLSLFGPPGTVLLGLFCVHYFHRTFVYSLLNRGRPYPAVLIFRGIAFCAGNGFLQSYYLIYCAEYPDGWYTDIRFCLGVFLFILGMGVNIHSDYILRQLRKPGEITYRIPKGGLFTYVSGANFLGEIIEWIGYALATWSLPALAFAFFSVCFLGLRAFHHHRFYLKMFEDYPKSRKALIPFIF
Description: In vitro 5α-reductase assays: The activity of the present compounds as inhibitors of steroid 5α-reductase was determined using microsomal preparations of the 5α-reductase enzyme from laboratory animal prostate tissue. Specifically, microsomes were isolated from cynomolgus monkey prostate tissue. Protein concentration of the microsomal preparations was determined prior to use of the samples. Individual assays of cynomolgus monkey prostatic 5α-reductase activity contained 0.1 M potassium phosphate-sodium citrate buffer, pH 5.6 1.0% (w/v) bovine serum albumin, […] sodium EDTA, 4 µg of microsomal protein, 1.0 mM NADPH, 5.0 mM glucose-6-phosphate, 1 IU/mL glucose-6-phosphate dehydrogenase, [1,2-^3H]-testosterone (0.15 µCi) plus unlabeled testosterone to yield 0.015 µM (Km = 0.015 µM to 0.091 µM in multiple determinations), and test compound which was dissolved in DMSO then diluted in 0.1 M potassium phosphate-sodium citrate buffer, pH 5.6, to yield a final assay concentration of 0.1% (v/v) DMSO. The same buffer and DMSO without test compound were used in control assays. Background radioactivity was determined from assays containing all components except enzyme. Assays were performed in duplicate. Microsomes, 0.1 M potassium phosphate-sodium citrate buffer, pH 5.6, and test compound were preincubated at 37°C. Aliquots of 180 µL were removed after 0 or 40 minutes of preincubation and added to […] of testosterone substrate suspended in 0.1 M potassium phosphate-sodium citrate buffer, pH 5.6, containing 10% (v/v) DMSO. Remaining enzyme activity was assayed for 10 minutes at 37°C in a Dubnoff shaker incubator.
The reactions were terminated by the addition of 5 mL CHCl3:methanol (2:1) and 0.9 mL water. Carrier steroids were added in the form of 2.5 µg each of testosterone, dihydrotestosterone, and 3,17-androstanediol. Steroid metabolites were then extracted according to the procedure of Moore and Wilson (Methods in Enzymol., O'Malley, B.W. and Hardman, J.G. eds., 36, 1975, pp. 466-474), the organic phase containing the steroids was evaporated using nitrogen gas, the residues were dissolved in 3% (v/v) isopropanol in hexane. The steroids were then separated by normal phase HPLC on a LiCrosorb® DIOL derivatized silica gel column (10 µm; 4 x 250 mm) with a 3% to 7.5% isopropanol in hexane gradient, followed by isocratic conditions of […] isopropanol in hexane. Radioactivity in the steroid peaks was measured using a Packard Radiomatic model HS Flo-One detector. When the compound were tested using the above procedures with cynomolgus monkey 5α-reductase, the following results were obtained: Table 2: […]

[2] = system: Dunning H Tumor; assay: Dunning H tumor growth in rats; assay type: in vivo, male Copenhagen rats; settings: MDL 105831 15 mg/kg/day PO, MDL 15910 50 mg/kg/day PO
Excerpt: As described in J.T. Isaacs & D.S. Coffey, Cancer Res. 41:5070-5075 (1981); W.J. Ellis & J.T. Issacs, Cancer Res. 45:6041-6050 (1985); T.W. Bedding & A.V. Schally, The Prostate 6:219-232 (1985) and P.E. Juniewicz et al. The Prostate 18:105-115 (1991), male Copenhagen rats were obtained from HARLAN-SPRAGUE-DAWLEY Inc. (Indianapolis, IN), and were individually housed in suspended wire cages and provided laboratory rodent chow (Purina 5001 pellets, Purina Mills, St. Louis, MO) and deionized water ad libum. The rats were anesthetized using sodium pentobarbital and the hair was clipped from the back dorsal area. Tumors from donor Copenhagen rats were cut into fragments of 10 mm^3 and implanted subcutaneously (one site per rat) into the prepared dorsal area.
Animals were selected (105 days post implantation) for the treatment phase based on tumor size. Ten animals were anesthetized with sodium pentobarbital and bilaterally castrated. The remaining animals were assigned to treatment groups (ten per group) based on mean group tumor size. Animals were kept separate throughout the study. The tested compounds were prepared in solution or suspension in a lecithin vehicle (L-α-phosphatidylcholine type XV-E) containing methylparaben and propylparaben. All treatments were performed by oral gavage (per os) at 2 cc/kg each day of study. Tumor size and rat body weights were recorded every seven days over a period of 35 days. Twenty-four hours after the last treatment animals were euthenized by CO2 and the tumors, prostate, seminal vesicles and testes were removed and weighed. In Table 4, average tumor growth is determined from the corrected group means over a 35 day period after treatment was started. […] The animals eliminated from the calculation of the corrected means were in Figure 6, animals 8, 9, 10; in Figure 7, animals 18, 19 and 20; in Figure 8, animals 27, 28, 29 and 30; and in Figure 9, animals 37, 39 and 40. The castrated controls in Figure 10 present a different problem. Here it is believed that the different tumor volumes observed throughout the group is attributable to the different sizes at the beginning of the study. Since the mean variance here is clearly attributable to factors other than the effect of the castration itself, animals 47, 48, 49 and 50 were deleted from the corrected mean. Of these, animal 47 died during the treatment period.
Table 4 indicates the average daily growth rate, measured from the corrected mean tumor size on day 35 and day 0, comparing MDL 105831 and flutamide (MDL 15910), a known androgen receptor antagonist. […]

Row | SMILES | inhibition at 0.1 µM ([1]; preincubation 0 min) | inhibition at 0.1 µM ([1]; preincubation 40 min) | inhibition at 1 µM ([1]; preincubation 0 min) | inhibition at 1 µM ([1]; preincubation 40 min) | inhibition at 10 µM ([1]; preincubation 0 min) | inhibition at 10 µM ([1]; preincubation 40 min) | Tumor Growth in Dunning H Rat, Day 0 ([2]; Day 0 (baseline), corrected group mean) | Tumor Growth in Dunning H Rat, Day 7 ([2]; Day 7, corrected group mean) | Tumor Growth in Dunning H Rat, Day 16 ([2]; Day 16, corrected group mean) | Tumor Growth in Dunning H Rat, Day 21 ([2]; Day 21, corrected group mean) | Tumor Growth in Dunning H Rat, Day 29 ([2]; Day 29, corrected group mean) | Tumor Growth in Dunning H Rat, Day 35 ([2]; Day 35, corrected group mean) | Δv/Δt (day 35-day 0) ([2]; average daily growth rate from corrected mean tumor size)
1 | CC12CCC3C(CC[C@H]4NC(=O)CCC34C)C1CC[C@@H]2OC1CC1 (stereo partly drawn) [MDL 103,432, 17β-Cyclopropyloxy-4-aza-5α-androstan-3-one] | 78.7% | 80% | 98.7% | 99.3% | 99.4% | 99.4% | – | – | – | – | – | – | –
2 | C[C@]12CC[C@H]3[C@@H](CC=C4NC(=O)CC[C@@]43C)[C@@H]1CC[C@@H]2NC1CC1 [MDL 105,831, 17β-Cyclopropylamino-4-aza-androst-5-en-3-one] | – | – | – | – | – | – | 328.40 mm^3 | 389.90 mm^3 | 497.20 mm^3 | 759.40 mm^3 | 1135.80 mm^3 | 1041.60 mm^3 | 20.38 mm^3/day
